Data set [1] in a line: Solubility in organic solvents. It is filed as physicochemical. The settings on record: except tetrahydrofuran (THF).
For data set [2], the target named is T1, CB1 (Homo sapiens, UniProt P21554). The experiment in a line: Radioligand binding assay, cooperativity with [3H]CP55,940. The settings on record: for cooperativity factor (α): from [3H]CP55,940 binding curves, membranes of HEK293 cells expressing CB1.
A further data set deals with CB1 wild-type receptor (Homo sapiens, UniProt P21554). The experiment in a line: [35S]GTPγS binding assay. It is filed as biochemical. In general terms: Binding of GTPγS marks nucleotide exchange on a G protein.
CB1 wild-type receptor, sequence (P21554 whole entry): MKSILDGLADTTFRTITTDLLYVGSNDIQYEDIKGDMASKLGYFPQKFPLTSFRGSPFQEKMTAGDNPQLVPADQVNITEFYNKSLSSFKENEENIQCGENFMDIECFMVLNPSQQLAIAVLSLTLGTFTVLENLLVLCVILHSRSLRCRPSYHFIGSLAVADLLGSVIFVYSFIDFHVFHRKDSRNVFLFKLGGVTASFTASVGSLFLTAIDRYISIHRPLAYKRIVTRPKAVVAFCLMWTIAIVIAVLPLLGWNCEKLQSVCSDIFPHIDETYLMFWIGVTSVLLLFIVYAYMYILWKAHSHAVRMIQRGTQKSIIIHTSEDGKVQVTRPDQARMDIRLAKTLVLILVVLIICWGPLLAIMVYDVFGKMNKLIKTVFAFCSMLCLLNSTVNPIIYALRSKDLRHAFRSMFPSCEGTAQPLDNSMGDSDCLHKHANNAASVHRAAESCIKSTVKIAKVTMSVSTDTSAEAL
In data set [3] the target is T1, CB1. Type of data set: binding. The settings on record: in the presence of ICAM-b.
Data set [4] has as its target T1, CB1. The settings on record: for time of maximal ERK1/2 phosphorylation: 0.5 µM CP55,940 or 3.2 µM ICAM-b.
The target in data set [5] is T1, CB1. The experiment in a line: Radioligand binding assay, cooperativity with [3H]SR141716A. The settings on record: for effect on [3H]SR141716A binding: in the concentration range tested.

Entries after “also recorded” stand apart in the source; their conditions may differ.

T1 sequence (P21554 whole entry): as above

In the case of `CCCCCc1c(C(=O)NCCc2ccc(N3CCCCC3)cc2)[nH]c2ccc(Cl)cc12` [ICAM-b, 5-chloro-3-pentyl-N-(4-(piperidin-1-yl)phenethyl)-1H-indole-2-carboxamide], the “solubility in common organic solvents” value in data set [1] was “poor”. Besides, the “cooperativity factor (α)” value was found to be 17.6 on CB1 [2] and 0.11 at CB1 [5] ([3H]SR141716A as tracer, membranes of HEK293 cells expressing CB1). The “inhibition of CP55,940-induced [35S]GTPγS binding” value on CB1 wild-type receptor (3.2 µM ICAM-b) was “complete inhibition”. Also, the “[35S]GTPγS binding level” value on CB1 wild-type receptor (3.2 µM ICAM-b, basal level 50.1 fmol/mg) was 42.1 fmol/mg. Also, the “Emax of CP55,940-induced [35S]GTPγS binding” value at CB1 wild-type receptor (in the presence of 0.32 µM ICAM-b) came out at 78.7 fmol/mg; at CB1 wild-type receptor (in the presence of 1 µM ICAM-b), 59.3 fmol/mg. Further, on CB1 [3], the “Bmax changes for CP55,940 and SR141716A” value is reported as “Negligible”. Also, the “time of maximal ERK1/2 phosphorylation” value on CB1 [4] (HEK293 cells expressing CB1) worked out at 5 min. The “transient ERK1/2 phosphorylation compared with CP55,940 alone” value on CB1 [4] (ICAM-b alone, control siRNA, HEK293 cells expressing CB1) is given as “larger increase”. The “effect of β-arrestin 2 siRNA on patterns of ERK1/2 phosphorylation” value on CB1 [4] (compared to control siRNA transfection) is recorded as “did not alter”. Also, the “effect on [3H]SR141716A binding” value on CB1 [5] is “substantial decrease”.

Take `CCCCCCC(C)(C)c1ccc([C@@H]2C[C@H](O)CC[C@H]2CCCO)c(O)c1` [CP55,940, (1R,3R,4R)-3-[2-hydroxy-4-(1,1-dimethylheptyl)-phenyl]-4-(3-hydroxypropyl)cyclohexan-1-ol, reference compound]: the “Emax of CP55,940-induced [35S]GTPγS binding” value at CB1 wild-type receptor (in the absence of ICAM-b) is reported as 98.9 fmol/mg. In addition, the “time of maximal ERK1/2 phosphorylation” value at CB1 [4] (HEK293 cells expressing CB1) came out at 5 min.

For the compound `CCc1c(C(=O)NCCc2ccc(N3CCCCC3)cc2)n(C)c2ccc(Cl)cc12` [ICAM-a, 5-chloro-3-ethyl-1-methyl-N-(4-(piperidin-1-yl)phenethyl)-1H-indole-2-carboxamide], the “solubility in common organic solvents” value in data set [1] was “poor”. On CB1 [2], the Kb was found to be 5.78 µM and the “cooperativity factor (α)” value amounted to 11.9. On CB1 [5], the “effect on [3H]SR141716A binding” value is reported as “little effect; also recorded: no effect”.

(Values after publication PMC3578011 (Journal of neurochemistry, 2013).)
